PMC12697872, “Rethinking the AI Paradigm for Solubility Prediction of Drug‑Like Compounds with Dual‐Perspective Modeling and Experimental Validation” (Advanced Science, 2025)
Converted amounts (≈) assume the structure as drawn. “And” between values parts separate entries of the source, which are not always exact repeats. Equal values may be shown once. Read-outs that look alike come from different tables or passages of the source.

What was measured:
[1] = Saturation shake-flask aqueous solubility, gravimetric determination; settings: for Experimental Class: European Pharmacopoeia solubility class from the experimental solubility; for solubility thermodynamic at 48 h: water (saturated aqueous solution); for solubility thermodynamic at 48 h / solubility at 48 h: 25 °C, water, thermodynamic from solid; for solubility at 48 h: Experimental Log S
Description: Excess solid drug was added to a vial to prepare supersaturated aqueous solutions. The vial was placed in a constant temperature mixer (Titan Technology, SD2‐100) at 25 °C and shaken for 48 h at a speed of 500 rpm. […] After equilibration, the solution was centrifugated at room temperature at 8000 rpm, and the supernatant was collected. The concentration of the supernatant was determined using the gravimetric method. A measured volume of the supernatant (e.g. 1 mL) was transferred to a pre‐weighted empty vial, dried in a vacuum oven at 70 °C, and re‐weighed. The difference between the initial and final weights represents the drug content in the saturated solution. Each compound was tested in triplicate to ensure accuracy.

[2] = cited from earlier work; for LogS(mol/L): SC2-2 dataset (Second Solubility Challenge, loose subset), aqueous solubility; for Class: SC2-2 dataset, aqueous solubility class 0-6
[3] = cited from earlier work; for LogS(mol/L): SC2-1 dataset (Second Solubility Challenge, tight subset), aqueous solubility; for Class: SC2-1 dataset, aqueous solubility class 0-6
[4] = shaken 48 h, triplicate, Log S = base-10 logarithm of moles per liter

With `CC(=O)SCC(Cc1ccccc1)C(=O)NCC(=O)OCc1ccccc1` (centres unmarked) [Racecadotril, reference compound] the “Experimental Class” value [1] was 6 (Practically insoluble or insoluble (6)), the “Experimental Log S” value ([1]; single replicate of triplicate) was -4.1710 and -3.8226 and -3.9232 and the “Experimental S” value ([1]; single replicate of triplicate) was 0.0260 and 0.0580 and 0.0460. It also gave a solubility thermodynamic at 48 h [1] of 43.3 µg/mL (≈ 0.112 mM), a solubility at 48 h ([1]; averaged over triplicate) of 0.107 mM (≈ 41.1 µg/mL) and a solubility at 48 h [1, 4] of 0.107 mM (≈ 41.1 µg/mL).
In the case of `Nc1nc2c(c(=O)[nH]1)CC=N2` [7-Deazaguanine], the “Experimental Log S” value ([1]; single replicate of triplicate) is reported as -1.8036 and -1.6879, the “Experimental S” value ([1]; single replicate of triplicate) is reported as 2.1200 and 2.3600 and 3.0800 and the solubility thermodynamic at 48 h [1] is reported as 2520 µg/mL (≈ 16.8 mM). For the same compound, the solubility at 48 h ([1]; averaged over triplicate) was 16.6 mM (≈ 2490 µg/mL) and the solubility at 48 h ([1]; single replicate of triplicate) was 14.1 mM (≈ 2120 µg/mL).
In the case of `OC[C@@H](O)CN1CCN(c2ccccc2)CC1` [Levodropropizine, reference compound], the “Experimental Class” value [1] is reported as 2 (Soluble (2)), the “Experimental Log S” value ([1]; single replicate of triplicate) is reported as -0.8427 and the “Experimental S” value ([1]; single replicate of triplicate) is reported as 34.3300 and 33.9500. It also gave a solubility thermodynamic at 48 h [1] of 34200 µg/mL (≈ 145 mM), a solubility at 48 h ([1]; averaged over triplicate) of 145 mM (≈ 34200 µg/mL) and a solubility at 48 h [1, 4] of 145 mM (≈ 34200 µg/mL). For the same compound, the solubility at 48 h ([1]; single replicate of triplicate) was 145 mM (≈ 34300 µg/mL).
In the case of `COC1C=COC2(C)Oc3c(C)c(O)c4c(c3C2=O)C2=NC3(CCN(CC(C)C)CC3)NC2=C(NC(=O)C(C)=CC=CC(C)C(O)C(C)C(O)C(C)C(OC(C)=O)C1C)C4=O` (centres unmarked), the “LogS(mol/L)” value [2] is given as -4.09 mol/L and the Class [2] is given as 6 (Practically insoluble or insoluble (6)).
In the case of `N[C@@H](Cc1ccc(I)cc1)C(=O)O` [4-Iodo-L-phenylalanine], the “Experimental Log S” value ([1]; averaged over triplicate) is reported as -2.7425, the “Experimental S” value ([1]; averaged over triplicate) is reported as 0.5633 and the “Experimental Log S” value ([1]; single replicate of triplicate) is reported as -2.6716 and -2.9727 and -2.5832. For the same compound, the “Experimental S” value ([1]; single replicate of triplicate) was 0.6200 and 0.3100 and 0.7600.
For `CCN(CC)CCOC(=O)c1ccc(N)cc1` [CCN(CC)CCOC(=O)c1ccc(N)cc1], the “LogS(mol/L)” value [2] is listed as -2.3 mol/L and the Class [2] is listed as 4 (Slightly soluble (4)).
With `Nc1nc2c(c(=O)[nH]1)CC=N2` [7‐Deazaguanine] the “Experimental Class” value [1] was 4 (Slightly soluble (4)) and the solubility at 48 h [1, 4] was 16.6 mM (≈ 2490 µg/mL).
For `CCCN(CCC)S(=O)(=O)c1ccc(C(=O)O)cc1` [CCCN(CCC)S(=O)(=O)c1ccc(C(=O)O)cc1], the “LogS(mol/L)” value [3] is given as -4.83 mol/L and the Class [3] is given as 6 (Practically insoluble or insoluble (6)).
For `COC(=O)Nc1nc2ccccc2[nH]1` [COC(=O)Nc1nc2ccccc2[nH]1], the “LogS(mol/L)” value [3] is given as -4.56 mol/L and the Class [3] is given as 6 (Practically insoluble or insoluble (6)).
In the case of `NCC(CC(=O)O)c1ccc(Cl)cc1` (centres unmarked) [NCC(CC(=O)O)c1ccc(Cl)cc1], the “LogS(mol/L)” value [3] is given as -1.78 mol/L and the Class [3] is given as 4 (Slightly soluble (4)).
For `CC(C)NCC(O)COc1ccc(COCCOC(C)C)cc1` (centres unmarked) [CC(C)NCC(O)COc1ccc(COCCOC(C)C)cc1], the “LogS(mol/L)” value [2] is listed as -2.09 mol/L and the Class [2] is listed as 4 (Slightly soluble (4)).
In the case of `c1ccc2c(c1)[nH]c1ccccc12` [c1ccc2c(c1)[nH]c1ccccc12], the “LogS(mol/L)” value [3] is given as -5.19 mol/L and the Class [3] is given as 6 (Practically insoluble or insoluble (6)).
For `CC1=C(C(=O)O)N2C(=O)[C@@H](NC(=O)[C@H](N)C3=CCC=CC3)[C@H]2SC1`, the “LogS(mol/L)” value [3] is listed as -1.18 mol/L and the Class [3] is listed as 3 (Sparingly soluble (3)).
In the case of `COc1ccc([C@@H]2Sc3ccccc3N(CCN(C)C)C(=O)[C@@H]2OC(C)=O)cc1`, the “LogS(mol/L)” value [3] is given as -3.02 mol/L and the Class [3] is given as 5 (Very slightly soluble (5)).
For `CC(=O)OCC(=O)[C@@]1(OC(C)=O)[C@@H](C)C[C@H]2[C@@H]3C[C@H](F)C4=CC(=O)C=C[C@]4(C)[C@@]3(F)[C@@H](O)C[C@@]21C`, the “LogS(mol/L)” value [3] is listed as -4.82 mol/L and the Class [3] is listed as 6 (Practically insoluble or insoluble (6)).
For `CCOc1ccc2nc(S(N)(=O)=O)sc2c1` [CCOc1ccc2nc(S(N)(=O)=O)sc2c1], the “LogS(mol/L)” value [3] is given as -3.76 mol/L and the Class [3] is given as 6 (Practically insoluble or insoluble (6)).
In the case of `CO[C@]12CC[C@@]3(C[C@@H]1[C@@](C)(O)C(C)(C)C)[C@H]1Cc4ccc(O)c5c4[C@@]3(CCN1CC1CC1)[C@H]2O5`, the “LogS(mol/L)” value [2] is listed as -6.07 mol/L and the Class [2] is listed as 6 (Practically insoluble or insoluble (6)).
In the case of `CCC(C)C1(CC)C(=O)NC(=O)NC1=O` (centres unmarked) [CCC(C)C1(CC)C(=O)NC(=O)NC1=O], the “LogS(mol/L)” value [3] is given as -2.22 mol/L and the Class [3] is given as 4 (Slightly soluble (4)).
For `Oc1ccc(/C=C/c2cc(O)cc(O)c2)cc1` [Oc1ccc(/C=C/c2cc(O)cc(O)c2)cc1], the Class [3] is given as 6 (Practically insoluble or insoluble (6)).
In the case of `c1ccc2[nH]c(-c3cscn3)nc2c1` [c1ccc2[nH]c(-c3cscn3)nc2c1], the Class [2] is listed as 6 (Practically insoluble or insoluble (6)).
In the case of `CC(C)N=c1cc2n(-c3ccc(Cl)cc3)c3ccccc3nc-2cc1Nc1ccc(Cl)cc1`, the “LogS(mol/L)” value [2] is listed as -9.05 mol/L and the Class [2] is listed as 6 (Practically insoluble or insoluble (6)).
For `CS(=O)(=O)c1ccc(C2=C(c3ccccc3)C(=O)OC2)cc1`, the “LogS(mol/L)” value [3] is given as -4.61 mol/L and the Class [3] is given as 6 (Practically insoluble or insoluble (6)).
